Laboratory results taken from patent publication US20190365907A1, “ZWITTERIONIC POLYMER-INSULIN COMPOSITIONS AND RELATED METHODS” (Wayne State University, priority 2017, published 2019).

Experiments:
[1] = test system: streptozotocin (STZ) induced diabetic mice; assay: Blood glucose lowering after tail vein injection in STZ-induced diabetic mice; assay type: in vivo
Procedure: The mice were fasted during the glucose testing period.
The injection dose for the three samples were readily kept the same at 10 nmol/Kg insulin or its conjugate (for native insulin dose, 10 nmol/kg=1.5 IU/kg), by accurately controlling the feeding molar content of insulin for the conjugation reaction.
The in vivo bioavailability of insulin samples was evaluated by quantifying the area above the curve (AAC) of relative intensity of blood glucose concentration in FIG. 4B.

[2] = biological target: T1, insulin receptor (Cricetulus griseus, UniProt A0A8C2MAM4); assay: In vitro bioactivity assay of insulin (phosphorylated AKT at Ser473 in CHO-M 1 cells); assay type: cell-based; conditions: 10 μg/mL, 45 minutes, FIG. 4C
T1 construct: host or cells: CHO-M1 cells
T1 sequence (A0A8C2MAM4 28-1372): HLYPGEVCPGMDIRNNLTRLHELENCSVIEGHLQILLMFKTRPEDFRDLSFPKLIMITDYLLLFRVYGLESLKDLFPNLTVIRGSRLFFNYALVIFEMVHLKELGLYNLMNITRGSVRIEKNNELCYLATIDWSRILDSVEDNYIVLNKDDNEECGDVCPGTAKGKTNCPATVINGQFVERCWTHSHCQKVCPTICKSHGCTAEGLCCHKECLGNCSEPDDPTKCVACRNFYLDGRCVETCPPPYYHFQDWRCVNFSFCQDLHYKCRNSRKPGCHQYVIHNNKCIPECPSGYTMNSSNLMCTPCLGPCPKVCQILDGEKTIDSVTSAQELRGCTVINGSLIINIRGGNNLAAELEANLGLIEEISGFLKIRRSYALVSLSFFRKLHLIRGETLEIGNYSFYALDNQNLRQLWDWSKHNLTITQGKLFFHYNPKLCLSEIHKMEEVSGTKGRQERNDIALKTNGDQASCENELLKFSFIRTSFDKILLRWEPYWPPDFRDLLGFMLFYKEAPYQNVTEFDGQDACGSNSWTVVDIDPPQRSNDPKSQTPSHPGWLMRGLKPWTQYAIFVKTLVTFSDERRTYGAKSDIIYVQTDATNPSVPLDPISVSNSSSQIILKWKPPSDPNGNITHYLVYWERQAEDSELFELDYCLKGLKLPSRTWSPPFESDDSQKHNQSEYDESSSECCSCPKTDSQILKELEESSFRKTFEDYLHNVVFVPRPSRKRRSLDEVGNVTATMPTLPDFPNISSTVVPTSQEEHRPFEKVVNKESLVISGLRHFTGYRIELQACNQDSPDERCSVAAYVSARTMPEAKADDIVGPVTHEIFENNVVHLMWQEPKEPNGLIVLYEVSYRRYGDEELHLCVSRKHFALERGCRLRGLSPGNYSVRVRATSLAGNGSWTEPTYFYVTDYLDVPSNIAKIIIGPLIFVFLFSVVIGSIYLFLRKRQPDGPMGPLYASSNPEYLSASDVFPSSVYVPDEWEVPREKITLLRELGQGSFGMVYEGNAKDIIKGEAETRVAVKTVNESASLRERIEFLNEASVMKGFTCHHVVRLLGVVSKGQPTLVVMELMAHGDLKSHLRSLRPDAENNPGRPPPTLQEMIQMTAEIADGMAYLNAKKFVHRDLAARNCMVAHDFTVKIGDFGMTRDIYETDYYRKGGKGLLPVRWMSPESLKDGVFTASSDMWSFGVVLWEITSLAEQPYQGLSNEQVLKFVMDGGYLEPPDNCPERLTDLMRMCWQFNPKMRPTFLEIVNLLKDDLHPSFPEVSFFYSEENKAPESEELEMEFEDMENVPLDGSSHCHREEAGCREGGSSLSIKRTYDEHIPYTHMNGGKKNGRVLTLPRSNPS
Procedure: About 25,000 CHO-M 1 cells/well (ATCC) were seeded in a 96-well tissue culture treated plate and incubate for 24 h before being cultured in serum-free medium. […] Then cells were lysed and a commercially available kit (Cisbio) was used to assay phosphorylated AKT at Ser473. The fluorescence emission at 665 and 620 nm was measured on a HTRF reader (BioTek, USA).
The relative activity was presented as the percentage relative to native insulin±standard deviation (n=6) * p<0.05, ** p<0.01, ns=not significant.

[3] = Circular dichroism secondary structure of insulin samples; assay type: physicochemical; conditions: far-UV CD, 0.2 mg/mL in 0.2 M pH 8.2 PBS buffer, CDSSTR analysis
Procedure: CD spectra were collected by using a Chirascan spectrophotometer from Applied Photophysics at 25° C. Insulin samples were dissolved in 0.2 M PBS buffer at 0.2 mg/ml. The […] CD spectra were measured from 200 to 250 nm with the light-path length of 1 mm. The scanning speed of CD spectra measurement was set at 200 nm/min. Each spectrum was the average of three scans to increase the signal-to-noise ratio of the measurements. The secondary structure proportions for insulin and its conjugates were analyzed using CDSSTR software.
The effect of polymer conjugation on the structure change of insulin was evaluated. Far-ultraviolet CD spectra were collected to quantify the effect of the zwitterionic polymer conjugation on insulin's secondary structure.

[4] = Hydrodynamic size by dynamic light scattering (DLS); assay type: physicochemical; conditions: pH 8.4 0.2M HEPES buffer, 25° C.; average±standard deviation, n=3
Procedure: The hydrodynamic sizes of the insulin and its conjugate samples were collected by a DLS method using a Malvern Nano-ZS Zetasizer at 25° C.
The hydrodynamic size of PCB-conjugated insulin was measured by a dynamic light scattering (DLS) method by using a Malvern Nano-ZS Zetasizer.

[5] = non-purified (rough) products, 10 nmol/Kg intravenous, FIG. 4A
[6] = purified conjugates, 10 nmol/kg intravenous, FIG. 4B

| Substance | blood glucose lowering ability compared with native insulin [1, 5] | blood glucose lowering ability compared with native insulin [1, 6] | activity lost in vitro compared with native insulin [2] | Random coil (secondary structure proportion) [3] | hydrodynamic size [4] |
| --- | --- | --- | --- | --- | --- |
| PCB-insulin: Conjugate of human recombinant insulin with NHS ester terminated zwitterionic carboxybetaine polymer (~5000 Da), one chain per insulin, prioritized at LysB29 | significantly higher blood glucose lowering ability than native insulin | even higher blood glucose lowering ability than native insulin |  |  |  |
| PEG-insulin: Comparison conjugate of human recombinant insulin with commercially available PEG-NHS (5000 Da) | similar | did not show any better glucose lowering effect than native insulin | about 27% | 30% | 4.2±0.7 nm |
